Experimental data published in patent US7022667B2, “O-derivatized nocathiacin derivatives” (Bristol-Myers Squibb Company, priority 2002, dated 2006).
≈ marks a conversion by molar mass, not a printed value.

Columns and labels:
Experiment in all cases: MIC, broth micro dilution assay (NCCLS)
Assay type in all cases: cell-based
[1] = test system: Enterococcus faecalis A20688; details: Mueller-Hinton medium, 35° C., 18 hours
Protocol: (§1) The serial broth dilution method used Mueller-Hinton medium except for the Streptococcus pneumoniae which was tested in 50% Mueller-Hinton medium and 50% Todd Hewitt medium. The final bacterial inoculate contained approximately 5×10^5 cfu/well and was run on microtiter plates. The volume of each well was 100 μL and the plates were incubated at 35° C. for 18 hours in ambient air. The MIC was defined as the lowest drug concentration that prevented visible growth.

[2] = test system: Staphylococcus aureus A15090; details: Mueller-Hinton medium, 35° C., 18 hours
Protocol: as §1

[3] = test system: Streptococcus pneumoniae A28272; details: 50% Mueller-Hinton medium and 50% Todd Hewitt medium, 35° C., 18 hours
Protocol: as §1

C=C(NC(=O)c1csc(-c2nc3c(cc2O)-c2nc(cs2)C(=O)NC(C(C)O)C(=O)NC(=C(C)OC)c2nc(cs2)C(=O)NC2c4nc(cs4)C(=O)NC(COC(=O)c4c5c6c(cccc6n4OCCCN(CC)CC)COC(=O)C(OC4CC(C)(O)C(N(C)C)C(C)O4)C2OC5)c2nc-3cs2)n1)C(N)=O (stereo not drawn) [Example 51] was tested, and the “MIC (μg/mL) Enterococcus faecalis A20688” value [1] was 0.125 µg/mL (≈ 0.0806 µM), the “MIC (μg/mL) Staphylococcus aureus A15090” value [2] was 0.5 µg/mL (≈ 0.322 µM) and the “MIC (μg/mL) Streptococcus pneumoniae A28272” value [3] was 0.015 µg/mL (≈ 0.00967 µM).
C=C(NC(=O)c1csc(-c2nc3c(cc2O)-c2nc(cs2)C(=O)NC(C(C)O)C(=O)NC(=C(C)OC)c2nc(cs2)C(=O)NC2c4nc(cs4)C(=O)NC(COC(=O)c4c5c6c(cccc6n4OCCn4ccnc4)COC(=O)C(OC4CC(C)(O)C(N(C)C)C(C)O4)C2OC5)c2nc-3cs2)n1)C(N)=O (stereo not drawn) [Example 46] was tested, and the “MIC (μg/mL) Enterococcus faecalis A20688” value [1] was 1.0 µg/mL (≈ 0.653 µM), the “MIC (μg/mL) Staphylococcus aureus A15090” value [2] was 0.5 µg/mL (≈ 0.326 µM) and the “MIC (μg/mL) Streptococcus pneumoniae A28272” value [3] was 0.015 µg/mL (≈ 0.00979 µM).
With C=C(NC(=O)c1csc(-c2nc3c(cc2O)-c2nc(cs2)C(=O)NC(C(C)O)C(=O)NC(=C(C)OC)c2nc(cs2)C(=O)NC2c4nc(cs4)C(=O)NC(COC(=O)c4c5c6c(cccc6n4OCOP(=O)(OC(C)(C)C)OC(C)(C)C)COC(=O)C(OC4CC(C)(O)C(N(C)C)C(C)O4)C2OC5)c2nc-3cs2)n1)C(N)=O (stereo not drawn) [Example 40] the “MIC (μg/mL) Enterococcus faecalis A20688” value [1] was 0.25 µg/mL (≈ 0.151 µM), the “MIC (μg/mL) Staphylococcus aureus A15090” value [2] was 0.125 µg/mL (≈ 0.0753 µM) and the “MIC (μg/mL) Streptococcus pneumoniae A28272” value [3] was 0.015 µg/mL (≈ 0.00904 µM).
In the case of C=C(NC(=O)c1csc(-c2nc3c(cc2OP(=O)(O)OCCCl)-c2nc(cs2)C(=O)NC(C(C)O)C(=O)NC(=C(C)OC)c2nc(cs2)C(=O)NC2c4nc(cs4)C(=O)NC(COC(=O)c4c5c6c(cccc6n4OP(=O)(O)OCCCl)COC(=O)C(OC4CC(C)(O)C(N(C)C)C(C)O4)C2OC5)c2nc-3cs2)n1)C(N)=O (stereo not drawn) [Example 86], the “MIC (μg/mL) Enterococcus faecalis A20688” value [1] is reported as 4.0 µg/mL (≈ 2.32 µM), the “MIC (μg/mL) Staphylococcus aureus A15090” value [2] is reported as 4.0 µg/mL (≈ 2.32 µM) and the “MIC (μg/mL) Streptococcus pneumoniae A28272” value [3] is reported as 0.5 µg/mL (≈ 0.29 µM).
With C=C(NC(=O)c1csc(-c2nc3c(cc2O)-c2nc(cs2)C(=O)NC(C(C)O)C(=O)NC(=C(C)OC)c2nc(cs2)C(=O)NC2c4nc(cs4)C(=O)NC(COC(=O)c4c5c6c(cccc6n4OC(=O)N(C)CCO)COC(=O)C(OC4CC(C)(O)C(N(C)C)C(C)O4)C2OC5)c2nc-3cs2)n1)C(N)=O (stereo not drawn) [Example 61] the “MIC (μg/mL) Enterococcus faecalis A20688” value [1] was 0.03 µg/mL (≈ 0.0195 µM), the “MIC (μg/mL) Staphylococcus aureus A15090” value [2] was 0.03 µg/mL (≈ 0.0195 µM) and the “MIC (μg/mL) Streptococcus pneumoniae A28272” value [3] was 0.0005 µg/mL (≈ 0.000325 µM).
For C=C(NC(=O)c1csc(-c2nc3c(cc2OC(=O)C(C)(C)C(=O)OCc2ccccc2)-c2nc(cs2)C(=O)NC(C(C)O)C(=O)NC(=C(C)OC)c2nc(cs2)C(=O)NC2c4nc(cs4)C(=O)NC(COC(=O)c4c5c6c(cccc6n4O)COC(=O)C(OC4CC(C)(O)C(N(C)C)C(C)O4)C2OC5)c2nc-3cs2)n1)C(N)=O (stereo not drawn) [Example 31], the “MIC (μg/mL) Enterococcus faecalis A20688” value [1] was 0.5 µg/mL (≈ 0.305 µM), the “MIC (μg/mL) Staphylococcus aureus A15090” value [2] was 0.25 µg/mL (≈ 0.152 µM) and the “MIC (μg/mL) Streptococcus pneumoniae A28272” value [3] was 0.06 µg/mL (≈ 0.0365 µM).
C=C(NC(=O)c1csc(-c2nc3c(cc2OCCCS(=O)(=O)[O-])-c2nc(cs2)C(=O)NC(C(C)O)C(=O)NC(=C(C)OC)c2nc(cs2)C(=O)NC2c4nc(cs4)C(=O)NC(COC(=O)c4c5c6c(cccc6n4OCCCS(=O)(=O)[O-])COC(=O)C(OC4CC(C)(O)C(N(C)C)C(C)O4)C2OC5)c2nc-3cs2)n1)C(N)=O.[Na+].[Na+] (stereo not drawn) [Example 67] was tested, and the “MIC (μg/mL) Enterococcus faecalis A20688” value [1] was 128 µg/mL, the “MIC (μg/mL) Staphylococcus aureus A15090” value [2] was >128 µg/mL and the “MIC (μg/mL) Streptococcus pneumoniae A28272” value [3] was 0.5 µg/mL.
